Laboratory results from US20090130212A1, “COMPOSITION AND IMPROVED METHOD FOR PREPARATION OF SMALL PARTICLES” (PHYSICAL PHARMACEUTICA, LLC, priority 2006, published 2009).

Tests used:
Type in all cases: physicochemical
[1] = Aqueous solubility of ibuprofen; conditions: pH 2, in 50 ml
[2] = pKa / ionization of ibuprofen; conditions: pH of 2
[3] = Dissolution of ibuprofen in 0.01N HCl, microdialysis sampling and HPLC (Example 3); conditions: 50 ml 0.01N HCl pH 2, 25° C
Description: The remaining ether was removed by evaporation at room temperature in a vacuum oven at less than 10 torr, for 2 hours.

With `CC(C)Cc1ccc(C(C)C(=O)O)cc1` (centres unmarked) [pure ibuprofen, ibuprofen] the “amount dissolved corresponding to solubility” value [1] was 4000 µg, the fraction unionized [2] was “more than 99%” and the “amount of ibuprofen dissolved” value ([3]; after five minutes) was “approximately 790 mcg”. For the same compound, the “amount of ibuprofen dissolved” value ([3]; after one minute) was “approximately 190 mcg” and the “amount of ibuprofen dissolved” value ([3]; after two minutes) was “approximately 350 mcg”.
